Source: the supplement of paper PMC12819154, “High-throughput peptide-centric local stability assay extends protein–ligand identification to membrane proteins, tissues and bacteria” (Nature Structural & Molecular Biology, 2025)

Key:
Test in all cases: pEC50 of peptide local stability change
MurD = MurD (UniProt P14900); details: peptide sequence: YLNGDNVR; direction: stabilized; replicate design: treated separately
Experimental: (§1)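 Dose-response HT-PELSA: desalted E. coli lysate treated separately per replicate with ATP (10 uM to 10 mM, 7 doses) for 30 min at 25 C, then a 4 min trypsin pulse at 22 C. Peptide ratio vs control was fitted with a 4-parameter log-logistic model (R2 > 0.9 in at least 3 replicates, CV of pEC50 <= 0.25); value is the mean pEC50 across replicates for stabilized or destabilized peptides.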

UniProt P00363 = details: peptide sequence: LAGEQATER; direction: stabilized; replicate design: treated separately
Experimental: as §1

UniProt P00452 = details: peptide sequence: VKAVELFSLMMQER; direction: stabilized; replicate design: treated separately
Experimental: as §1

UniProt P03018 = details: peptide sequence: EVYHRPSR; direction: stabilized; replicate design: treated separately
Experimental: as §1

UniProt P05707 = details: peptide sequence: VGSKHNSGYSAAK; direction: stabilized; replicate design: treated separately
Experimental: as §1

UniProt P07821 = details: peptide sequence: LVDSLSGGER; direction: stabilized; replicate design: treated separately
Experimental: as §1

UniProt P07862 = details: peptide sequence: AWTTLGCK; direction: stabilized; replicate design: treated separately
Experimental: as §1

UniProt P08200 = details: peptide sequence: VAIKGPLTTPVGGGIR; direction: stabilized; replicate design: treated separately
Experimental: as §1

UniProt P0AEC3 = details: peptide sequence: DSHGGKPATGTGIGLAVSR; direction: stabilized; replicate design: treated separately
Experimental: as §1

UniProt P0AFU4 = details: peptide sequence: LMTASWPGNVR; direction: stabilized; replicate design: treated separately
Experimental: as §1

UniProt P0DMC5 = details: peptide sequence: EVMNHITANYLPLVVR; direction: stabilized; replicate design: treated separately
Experimental: as §1

UniProt P11454 = details: peptide sequence: ALPLPELK; direction: stabilized; replicate design: treated separately
Experimental: as §1

UniProt P12282 = details: peptide sequence: NQLNAGCFAAK; direction: stabilized; replicate design: treated separately
Experimental: as §1

UniProt P13458 = details: peptide sequence: LESTFAVK; direction: stabilized; replicate design: treated separately
Experimental: as §1

UniProt P15034 = details: peptide sequence: RAGEITAMAHTR; direction: stabilized; replicate design: treated separately
Experimental: as §1

UniProt P15640 = details: peptide sequence: VIEFNCR; direction: stabilized; replicate design: treated separately
Experimental: as §1

UniProt P23331 = details: peptide sequence: AEHEQQAIHCVLVDECQFLTR; direction: stabilized; replicate design: treated separately
Experimental: as §1

UniProt P25536 = details: peptide sequence: IVTGIEEQR; direction: stabilized; replicate design: treated separately
Experimental: as §1

UniProt P25741 = details: peptide sequence: GKDAFAEVK; direction: stabilized; replicate design: treated separately
Experimental: as §1

UniProt P27296 = details: peptide sequence: AQIAAWYK; direction: stabilized; replicate design: treated separately
Experimental: as §1

UniProt P27550 = details: peptide sequence: NTSFAPGNVSIK; direction: stabilized; replicate design: treated separately
Experimental: as §1

UniProt P27828 = details: peptide sequence: AHNPYGDGQACSR; direction: stabilized; replicate design: treated separately
Experimental: as §1

UniProt P30844 = details: peptide sequence: AGQSFSSGNYQHVK; direction: stabilized; replicate design: treated separately
Experimental: as §1

UniProt P31808 = details: peptide sequence: TGMTFDAQPGR; direction: stabilized; replicate design: treated separately
Experimental: as §1

UniProt P32143 = details: peptide sequence: AGIPDCDQTR; direction: stabilized; replicate design: treated separately
Experimental: as §1

UniProt P33940 = details: peptide sequence: EYYPQAK; direction: stabilized; replicate design: treated separately
Experimental: as §1

UniProt P36566 = details: peptide sequence: TLSPDYPR; direction: stabilized; replicate design: treated separately
Experimental: as §1

UniProt P36879 = details: peptide sequence: KTYPGGVQALR; direction: stabilized; replicate design: treated separately
Experimental: as §1

UniProt P37634 = details: peptide sequence: HTVQSLIIESLKEK; direction: stabilized; replicate design: treated separately
Experimental: as §1

UniProt P37647 = details: peptide sequence: GHLTASTVIQYR; direction: stabilized; replicate design: treated separately
Experimental: as §1

UniProt P39177 = details: peptide sequence: NPSISTHLLGSNASSVIR; direction: stabilized; replicate design: treated separately
Experimental: as §1

Sequence of UniProt P23331 (P23331 whole entry): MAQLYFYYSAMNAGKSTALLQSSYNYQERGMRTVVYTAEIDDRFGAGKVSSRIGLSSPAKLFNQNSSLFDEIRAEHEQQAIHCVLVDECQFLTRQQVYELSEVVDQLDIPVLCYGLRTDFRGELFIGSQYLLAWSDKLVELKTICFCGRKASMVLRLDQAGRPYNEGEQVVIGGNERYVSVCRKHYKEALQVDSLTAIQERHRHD
Sequence of UniProt P0AFU4 (P0AFU4 whole entry): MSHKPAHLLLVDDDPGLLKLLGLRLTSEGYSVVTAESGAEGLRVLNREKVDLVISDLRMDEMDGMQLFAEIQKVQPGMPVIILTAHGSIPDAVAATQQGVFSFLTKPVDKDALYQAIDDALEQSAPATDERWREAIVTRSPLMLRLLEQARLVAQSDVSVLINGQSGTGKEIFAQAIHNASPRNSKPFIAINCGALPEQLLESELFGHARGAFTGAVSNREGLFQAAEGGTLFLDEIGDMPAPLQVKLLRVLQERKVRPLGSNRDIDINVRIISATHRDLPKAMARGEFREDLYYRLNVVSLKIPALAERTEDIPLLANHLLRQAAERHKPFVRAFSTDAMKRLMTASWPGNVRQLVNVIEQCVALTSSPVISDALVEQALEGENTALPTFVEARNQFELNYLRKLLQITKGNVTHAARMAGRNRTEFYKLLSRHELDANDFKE
Sequence of UniProt P31808 (P31808 whole entry): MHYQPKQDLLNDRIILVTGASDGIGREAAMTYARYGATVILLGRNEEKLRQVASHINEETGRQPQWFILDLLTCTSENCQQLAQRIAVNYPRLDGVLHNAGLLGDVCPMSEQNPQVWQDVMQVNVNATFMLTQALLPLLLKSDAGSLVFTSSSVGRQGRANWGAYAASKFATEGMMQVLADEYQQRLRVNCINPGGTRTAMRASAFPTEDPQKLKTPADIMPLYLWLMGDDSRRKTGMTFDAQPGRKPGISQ
Sequence of UniProt P25741 (P25741 whole entry): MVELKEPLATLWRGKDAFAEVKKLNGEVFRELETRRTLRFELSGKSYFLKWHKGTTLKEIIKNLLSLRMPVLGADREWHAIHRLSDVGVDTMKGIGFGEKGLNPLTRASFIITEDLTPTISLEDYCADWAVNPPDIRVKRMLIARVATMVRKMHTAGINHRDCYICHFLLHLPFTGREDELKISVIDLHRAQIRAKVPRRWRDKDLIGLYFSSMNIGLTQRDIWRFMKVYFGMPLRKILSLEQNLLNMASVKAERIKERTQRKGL
Sequence of UniProt P27296 (P27296 whole entry): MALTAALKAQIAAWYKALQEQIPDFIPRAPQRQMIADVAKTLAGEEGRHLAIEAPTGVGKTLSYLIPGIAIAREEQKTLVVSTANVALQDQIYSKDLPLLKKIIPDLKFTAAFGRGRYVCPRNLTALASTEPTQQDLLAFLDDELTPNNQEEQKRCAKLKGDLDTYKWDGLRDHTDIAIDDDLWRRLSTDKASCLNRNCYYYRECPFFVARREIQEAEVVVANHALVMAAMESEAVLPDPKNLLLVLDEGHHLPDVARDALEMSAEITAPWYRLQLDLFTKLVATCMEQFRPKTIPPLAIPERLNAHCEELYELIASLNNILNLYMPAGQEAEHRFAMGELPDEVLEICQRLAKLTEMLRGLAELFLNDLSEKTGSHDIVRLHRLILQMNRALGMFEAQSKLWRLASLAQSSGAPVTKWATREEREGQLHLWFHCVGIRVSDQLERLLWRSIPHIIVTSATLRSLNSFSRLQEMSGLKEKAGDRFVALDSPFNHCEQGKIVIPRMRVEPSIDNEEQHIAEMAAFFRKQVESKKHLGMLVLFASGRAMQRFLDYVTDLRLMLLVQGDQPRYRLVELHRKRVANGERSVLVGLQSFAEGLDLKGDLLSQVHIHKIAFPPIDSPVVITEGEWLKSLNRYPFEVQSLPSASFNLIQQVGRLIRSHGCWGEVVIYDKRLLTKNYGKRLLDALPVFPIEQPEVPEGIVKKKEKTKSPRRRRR
Sequence of UniProt P13458 (P13458 whole entry): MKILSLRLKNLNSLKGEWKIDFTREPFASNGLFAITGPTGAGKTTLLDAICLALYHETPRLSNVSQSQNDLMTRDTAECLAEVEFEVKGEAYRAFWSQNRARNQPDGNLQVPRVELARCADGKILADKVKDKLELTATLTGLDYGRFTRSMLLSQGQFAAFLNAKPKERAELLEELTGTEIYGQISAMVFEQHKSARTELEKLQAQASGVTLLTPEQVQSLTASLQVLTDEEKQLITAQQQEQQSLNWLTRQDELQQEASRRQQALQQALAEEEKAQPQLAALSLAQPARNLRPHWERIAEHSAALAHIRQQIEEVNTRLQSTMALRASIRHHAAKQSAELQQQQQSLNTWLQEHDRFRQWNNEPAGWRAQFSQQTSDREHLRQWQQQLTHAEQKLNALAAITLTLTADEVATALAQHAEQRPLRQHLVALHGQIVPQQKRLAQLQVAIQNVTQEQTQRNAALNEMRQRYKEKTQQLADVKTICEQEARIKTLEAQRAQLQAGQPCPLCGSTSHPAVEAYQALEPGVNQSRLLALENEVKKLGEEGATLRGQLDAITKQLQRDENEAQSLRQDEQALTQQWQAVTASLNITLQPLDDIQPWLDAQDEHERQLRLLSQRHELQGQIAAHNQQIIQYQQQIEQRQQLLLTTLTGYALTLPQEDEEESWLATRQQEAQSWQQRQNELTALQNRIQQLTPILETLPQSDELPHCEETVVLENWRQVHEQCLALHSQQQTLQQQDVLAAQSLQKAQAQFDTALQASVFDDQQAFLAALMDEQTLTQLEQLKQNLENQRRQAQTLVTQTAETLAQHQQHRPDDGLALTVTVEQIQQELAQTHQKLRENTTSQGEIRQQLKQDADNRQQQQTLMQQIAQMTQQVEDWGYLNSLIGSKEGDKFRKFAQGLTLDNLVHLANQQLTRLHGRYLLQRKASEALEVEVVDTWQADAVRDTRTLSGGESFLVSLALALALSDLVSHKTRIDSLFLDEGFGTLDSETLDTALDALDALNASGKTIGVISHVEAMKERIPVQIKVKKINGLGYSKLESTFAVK
Sequence of MurD (P14900 whole entry): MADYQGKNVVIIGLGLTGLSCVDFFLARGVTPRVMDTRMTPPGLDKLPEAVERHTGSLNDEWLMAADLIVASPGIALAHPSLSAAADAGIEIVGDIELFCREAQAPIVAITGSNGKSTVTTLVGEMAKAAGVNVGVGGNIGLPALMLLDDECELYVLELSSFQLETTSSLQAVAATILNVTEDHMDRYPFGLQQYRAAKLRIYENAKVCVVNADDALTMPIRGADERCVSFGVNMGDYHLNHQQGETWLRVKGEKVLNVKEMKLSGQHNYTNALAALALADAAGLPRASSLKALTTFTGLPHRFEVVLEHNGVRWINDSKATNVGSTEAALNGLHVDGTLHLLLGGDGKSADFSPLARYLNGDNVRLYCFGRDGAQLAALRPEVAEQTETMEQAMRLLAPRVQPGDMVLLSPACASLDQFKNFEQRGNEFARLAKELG
Sequence of UniProt P07821 (P07821 whole entry): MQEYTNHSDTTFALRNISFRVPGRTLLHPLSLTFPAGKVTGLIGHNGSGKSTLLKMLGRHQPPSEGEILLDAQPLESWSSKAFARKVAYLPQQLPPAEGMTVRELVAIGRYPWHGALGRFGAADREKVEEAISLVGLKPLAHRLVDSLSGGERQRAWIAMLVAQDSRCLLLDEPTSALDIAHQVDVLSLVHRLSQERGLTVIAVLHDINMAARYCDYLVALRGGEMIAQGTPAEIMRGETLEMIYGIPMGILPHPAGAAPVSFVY
Sequence of UniProt P00363 (P00363 whole entry): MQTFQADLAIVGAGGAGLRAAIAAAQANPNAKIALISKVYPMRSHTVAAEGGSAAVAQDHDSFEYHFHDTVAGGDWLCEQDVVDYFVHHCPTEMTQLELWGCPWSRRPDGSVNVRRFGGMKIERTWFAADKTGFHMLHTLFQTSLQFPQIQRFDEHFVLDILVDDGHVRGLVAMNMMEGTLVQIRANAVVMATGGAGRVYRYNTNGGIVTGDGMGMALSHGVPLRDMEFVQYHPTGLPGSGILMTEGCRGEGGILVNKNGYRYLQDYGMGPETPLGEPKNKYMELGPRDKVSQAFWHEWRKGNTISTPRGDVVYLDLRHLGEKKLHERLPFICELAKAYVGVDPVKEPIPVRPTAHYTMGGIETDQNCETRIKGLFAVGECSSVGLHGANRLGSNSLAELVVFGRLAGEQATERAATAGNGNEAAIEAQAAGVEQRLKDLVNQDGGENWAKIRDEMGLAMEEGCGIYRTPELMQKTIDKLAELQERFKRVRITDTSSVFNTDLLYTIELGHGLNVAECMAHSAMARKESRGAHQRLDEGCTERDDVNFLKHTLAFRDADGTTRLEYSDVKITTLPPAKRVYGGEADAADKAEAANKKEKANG
Sequence of UniProt P32143 (P32143 whole entry): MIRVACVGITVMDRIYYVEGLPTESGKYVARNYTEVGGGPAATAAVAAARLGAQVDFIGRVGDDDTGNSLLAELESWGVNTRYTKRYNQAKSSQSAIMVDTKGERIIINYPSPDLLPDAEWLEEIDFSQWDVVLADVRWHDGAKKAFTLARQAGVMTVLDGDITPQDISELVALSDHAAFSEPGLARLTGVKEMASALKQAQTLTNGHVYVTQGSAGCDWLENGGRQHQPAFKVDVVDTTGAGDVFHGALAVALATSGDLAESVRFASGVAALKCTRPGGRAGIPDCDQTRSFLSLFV
Sequence of UniProt P39177 (P39177 whole entry): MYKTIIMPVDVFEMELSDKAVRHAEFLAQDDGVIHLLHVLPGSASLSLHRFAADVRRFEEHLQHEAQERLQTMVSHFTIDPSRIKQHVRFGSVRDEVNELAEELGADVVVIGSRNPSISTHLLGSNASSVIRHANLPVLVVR
Sequence of UniProt P12282 (P12282 whole entry): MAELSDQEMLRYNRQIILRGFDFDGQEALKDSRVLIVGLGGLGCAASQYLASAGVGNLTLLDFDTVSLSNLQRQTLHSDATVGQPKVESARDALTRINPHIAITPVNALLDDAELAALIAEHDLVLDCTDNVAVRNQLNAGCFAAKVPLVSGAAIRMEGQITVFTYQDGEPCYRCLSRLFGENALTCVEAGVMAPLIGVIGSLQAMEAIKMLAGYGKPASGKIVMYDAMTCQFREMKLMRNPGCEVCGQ

Nc1ncnc2c1ncn2[C@@H]1O[C@H](COP(=O)(O)OP(=O)(O)OP(=O)(O)O)[C@@H](O)[C@H]1O [adenosine 5'-triphosphate]
pEC50 of peptide local stability change (MurD): 3.82 | pEC50 of peptide local stability change (UniProt P00363): 2.48 | pEC50 of peptide local stability change (UniProt P00452): 3.75 | pEC50 of peptide local stability change (UniProt P03018): 3.07 | pEC50 of peptide local stability change (UniProt P05707): 3.86 | pEC50 of peptide local stability change (UniProt P07821): 3.1 | pEC50 of peptide local stability change (UniProt P07862): 3.66 | pEC50 of peptide local stability change (UniProt P08200): 2.33 | pEC50 of peptide local stability change (UniProt P0AEC3): 2.99 | pEC50 of peptide local stability change (UniProt P0AFU4): 3.39 | pEC50 of peptide local stability change (UniProt P0DMC5): 2.58 | pEC50 of peptide local stability change (UniProt P11454): 3.15 | pEC50 of peptide local stability change (UniProt P12282): 3.44 | pEC50 of peptide local stability change (UniProt P13458): 2.9 | pEC50 of peptide local stability change (UniProt P15034): 3.83 | pEC50 of peptide local stability change (UniProt P15640): 3.7 | pEC50 of peptide local stability change (UniProt P23331): 3.2 | pEC50 of peptide local stability change (UniProt P25536): 3.52 | pEC50 of peptide local stability change (UniProt P25741): 3.2 | pEC50 of peptide local stability change (UniProt P27296): 3.36 | pEC50 of peptide local stability change (UniProt P27550): 3.34 | pEC50 of peptide local stability change (UniProt P27828): 2.12 | pEC50 of peptide local stability change (UniProt P30844): 2.71 | pEC50 of peptide local stability change (UniProt P31808): 2.09 | pEC50 of peptide local stability change (UniProt P32143): 3.39 | pEC50 of peptide local stability change (UniProt P33940): 3.09 | pEC50 of peptide local stability change (UniProt P36566): 2.46 | pEC50 of peptide local stability change (UniProt P36879): 3.73 | pEC50 of peptide local stability change (UniProt P37634): 2.64 | pEC50 of peptide local stability change (UniProt P37647): 3.1 | pEC50 of peptide local stability change (UniProt P39177): 3.26
